In data set [1] the target is T1, Probable G-protein coupled receptor 142 (Homo sapiens) (UniProt Q7Z601).
T1 sequence (whole entry): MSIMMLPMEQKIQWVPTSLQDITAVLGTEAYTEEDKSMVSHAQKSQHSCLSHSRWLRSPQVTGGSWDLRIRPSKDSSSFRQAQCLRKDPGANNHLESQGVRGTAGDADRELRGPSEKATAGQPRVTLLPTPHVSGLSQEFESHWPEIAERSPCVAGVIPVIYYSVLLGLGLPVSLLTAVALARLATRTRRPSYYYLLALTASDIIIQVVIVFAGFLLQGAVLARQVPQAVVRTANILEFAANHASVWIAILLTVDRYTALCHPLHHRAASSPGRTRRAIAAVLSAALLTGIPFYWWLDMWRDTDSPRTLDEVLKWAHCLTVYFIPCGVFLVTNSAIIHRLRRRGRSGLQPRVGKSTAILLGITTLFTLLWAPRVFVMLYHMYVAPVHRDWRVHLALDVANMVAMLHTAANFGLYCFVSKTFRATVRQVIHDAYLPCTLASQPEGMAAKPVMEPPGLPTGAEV
The experiment in a line: Agonist activity at human GPR142 expressed in HEK293 cells assessed as inositol phosphate accumulation at 10 uM after 1 hr by scintillation counting. Format: functional, cell-based.

The nature of data set [2]: Metabolic stability of human microsomes assessed as compound turnover at 1 uM after 30 mins by LC-MS analysis. Format: ADME, Microsome. To be noted: read-out: Drug metabolism.
Data set [3] can be described thus: Metabolic stability of rat microsomes assessed as compound turnover at 1 uM after 30 mins by LC-MS analysis. Format: ADME, Microsome. To be noted: read-out: Drug metabolism.
For data set [4], the target named is T2, Probable G-protein coupled receptor 142 (Homo sapiens, UniProt Q7Z601).
T2 sequence (Q7Z601 whole entry): T1 sequence (whole entry)
Kind of data set: Agonist activity at human GPR142 expressed in HEK293 cells assessed as inositol phosphate accumulation after 1 hr by scintillation counting. Format: functional, cell-based.

Data set [5] is described as follows: Oral bioavailability in rat at 2 mg/kg. Format: ADME, organism-based. The following applies: in vivo.
Data set [6] can be described thus: Clearance in rat at 0.5 mg/kg, iv. Format: ADME, organism-based. Set-up: dose 0.5 mg/kg, route intravenous. To be noted: in vivo.
A short description of data set [7]: Clearance in rat. Format: ADME, organism-based. The following applies: in vivo.
For data set [8], the target named is T1, Probable G-protein coupled receptor 142 (Homo sapiens). The experiment in a line: Agonist activity at human GPR142 expressed in HEK293 cells assessed as inositol phosphate accumulation after 1 hr by scintillation counting in presence of 100% serum. Format: functional, cell-based.

These results are taken from ChEMBL document CHEMBL2163318, “Phenylalanine derivatives as GPR142 agonists for the treatment of type II diabetes” (Bioorg Med Chem Lett, 2012).

Each structure is given as a SMILES string. Activity calls are given as the source filed them. The rule behind the calls is not given here.

Broadly, the Emax is the maximal effect, on the per cent scale that the assay sets. By EC50 is commonly meant the concentration needed to bring the measured effect to its halfway point. A word on the bioavailability: it is dose-corrected exposure relative to a reference, in per cent. High values mean good availability, low ones poor availability. Broadly, the clearance is a measure of how efficiently the substance is removed, as volume per time. Read a high clearance as a high capacity for elimination.

Take `Cc1nc(C2(N[C@@H](Cc3ccccc3)C(=O)Nc3cc(-c4ccncc4)c[nH]c3=O)CC2)cs1`: the Emax in data set [1] stood at 106%. Further, the metabolised at 0.5 h, 1 µM in data set [2] came out at 64%; in data set [3], 74%. Moreover, in data set [4], the EC50 worked out at 200 nM.
The corresponding values for `O=C(Nc1cc(-c2ccncc2)c[nH]c1=O)[C@H](Cc1ccccc1)NCCc1ccccn1` are 76%, 100%, 100% and 1320 nM.
The corresponding values for `O=C1CC[C@H](CN[C@@H](Cc2ccccc2)C(=O)Nc2cc(-c3ccncc3)c[nH]c2=O)N1` are 78%, 19%, 67% and 2230 nM.
As to `C[C@H](N[C@@H](Cc1ccccc1)C(=O)Nc1cc(-c2ccncc2)c[nH]c1=O)c1ccccn1`, the Emax in data set [1] amounted to 107%. In addition, the metabolised at 0.5 h, 1 µM came to 100% in data set [2] and 99% in data set [3]. The EC50 in data set [4] turned out to be 220 nM.
In the same order, the values of `O=C(Nc1cc(-c2ccncc2)c[nH]c1=O)[C@H](Cc1ccccc1)NC1(c2ncccn2)CC1` are 114%, 21%, 67% and 99 nM.
Turning to `O=C(Nc1nnc(-c2cncs2)s1)[C@H](Cc1ccccc1)NCc1cscn1`, the bioavailability in data set [5] worked out at 32%. Also, the Emax in data set [1] turned out to be 74%. Moreover, the metabolised at 0.5 h, 1 µM was 29% in data set [2] and 57% in data set [3]. Moreover, the EC50 in data set [4] came out at 390 nM. In data set [6], the clearance was 40 mL/min/kg.
Regarding `O=C(Nc1cc(-c2ccncc2)c[nH]c1=O)[C@H](Cc1ccccc1)NCCC1CCOCC1`, the Emax in data set [1] turned out to be 84%. Besides, the figures for the metabolised at 0.5 h, 1 µM in data set [2] and in data set [3] were 66% and 80%, respectively. In addition, the EC50 in data set [4] turned out to be 1060 nM.
In the same order, the values of `O=C(Nc1cc(-c2ccncc2)c[nH]c1=O)[C@H](Cc1ccccc1)NCC1CCS(=O)(=O)CC1` are 91%, 21%, 58% and 20000 nM.
`Cn1cncc1-c1nnc(NC(=O)[C@H](Cc2ccccc2)NCc2cscn2)s1` showed a bioavailability in data set [5] of 19%. The Emax in data set [1] turned out to be 86%. The metabolised at 0.5 h, 1 µM in data set [2] stood at 19%; in data set [3], 35%. Moreover, the EC50 in data set [4] turned out to be 180 nM. The molecule also showed a clearance in data set [6] of 28.3 mL/min/kg.
Take `COc1ncc(-c2ccncc2)cc1NC(=O)[C@H](Cc1ccccc1)NC1(c2ccccn2)CC1`: in data set [1], the Emax stood at 123%. For the same molecule, the metabolised at 0.5 h, 1 µM in data set [2] is 15%; in data set [3], 54%. For the same molecule, the EC50 in data set [4] is 350 nM. The molecule also gave a clearance in data set [7] of 21.7 mL/min/kg. Moreover, in data set [8], the outcome was inactive.
Take `Cc1cc(CN[C@@H](Cc2ccccc2)C(=O)Nc2cc(-c3ccncc3)c[nH]c2=O)no1`: the Emax in data set [1] is 93%. Moreover, the values for the metabolised at 0.5 h, 1 µM in data set [2] and in data set [3] were 78% and 95%, respectively. Also, the EC50 in data set [4] turned out to be 2200 nM.
The corresponding values for `O=C(Nc1cc(-c2ccncc2)c[nH]c1=O)[C@H](Cc1ccccc1)NC[C@H]1CCCO1` are 78%, 83%, 98% and 390 nM.
On to `O=C(Nc1cc(-c2ccncc2)c[nH]c1=O)[C@H](Cc1ccccc1)NCc1ccccn1`, for which the maximum response (Emax) in data set [1] was 155%. Also, the metabolised at 0.5 h, 1 µM in data set [2] and in data set [3] was 95% each time. The EC50 in data set [4] turned out to be 95 nM.
For `CC(C)(N[C@@H](Cc1ccccc1)C(=O)Nc1cc(-c2ccncc2)c[nH]c1=O)c1ccccn1`, the Emax in data set [1] came to 57%. Moreover, the metabolised at 0.5 h, 1 µM was over 95% in data set [2] and 100% in data set [3]. For the same molecule, the EC50 in data set [4] turned out to be 9450 nM.
In the case of `O=C(Nc1cc(-c2ccncc2)c[nH]c1=O)[C@H](Cc1ccccc1)NCc1c[nH]cn1`, the Emax in data set [1] came out at 107%. The metabolised at 0.5 h, 1 µM in data set [2] was 60%; in data set [3] it was 96%. The EC50 in data set [4] came out at 110 nM.
`O=C(O)Cn1cc(-c2ccncc2)cc(NC(=O)[C@H](Cc2ccccc2)NC2(c3ccccn3)CC2)c1=O`: the Emax in data set [1] was 83%. Moreover, the metabolised at 0.5 h, 1 µM in data set [2] turned out to be 10%; in data set [3] it was 12%. Also, in data set [4], the EC50 worked out at 260 nM. Moreover, the clearance in data set [7] was 83.3 mL/min/kg.
Consider `Cn1ccc(CN[C@@H](Cc2ccccc2)C(=O)Nc2cc(-c3ccncc3)c[nH]c2=O)n1`, for which, in data set [1], the Emax amounted to 92%. Further, the metabolised at 0.5 h, 1 µM in data set [2] turned out to be 90%; in data set [3], 100%. Further, the EC50 in data set [4] is 210 nM.
As for `CN(C)CCn1cc(-c2ccncc2)cc(NC(=O)[C@H](Cc2ccccc2)NC2(c3ccccn3)CC2)c1=O`, the Emax in data set [1] is 118%. The metabolised at 0.5 h, 1 µM amounted to 19% in data set [2] and 22% in data set [3]. Besides, the EC50 in data set [4] amounted to 280 nM. Moreover, in data set [7], the clearance was 51.7 mL/min/kg.
Regarding `O=C(Nc1cc(-c2ccncc2)c[nH]c1=O)[C@H](Cc1ccccc1)NCc1cscn1`, the metabolised at 0.5 h, 1 µM in data set [2] is 68%; in data set [3], 99%. Moreover, the EC50 in data set [4] was 930 nM. Moreover, in data set [8], the result was Active.
Regarding `C[C@@H](N[C@@H](Cc1ccccc1)C(=O)Nc1cc(-c2ccncc2)c[nH]c1=O)c1ccccn1`, the Emax in data set [1] worked out at 60%. Moreover, the metabolised at 0.5 h, 1 µM in data set [2] and in data set [3] was 95% in each case. In addition, the EC50 in data set [4] stood at 6000 nM.
Take `CCC(N[C@@H](Cc1ccccc1)C(=O)Nc1cc(-c2ccncc2)c[nH]c1=O)c1ccccn1` (mixture of isomers): the Emax in data set [1] amounted to 81%. For the same molecule, the results for the metabolised at 0.5 h, 1 µM in data set [2] and in data set [3] were 85% and 95%, respectively. Moreover, in data set [4], the EC50 is 730 nM.
For the molecule `O=C(Nc1cc(-c2ccncc2)c[nH]c1=O)[C@H](Cc1ccccc1)NCc1ncccn1`, the Emax in data set [1] came to 95%. Also, the figures for the metabolised at 0.5 h, 1 µM in data set [2] and in data set [3] were 90% and 99%, respectively. Also, the EC50 in data set [4] stood at 440 nM.
